In patent US7230096B2, “Inhibitors against galectins” (priority 2001, dated 2007):

How the values were obtained:
[1] = biological target: T1, recombinant human galectin-3 (Homo sapiens, UniProt P17931); assay: Inhibition of galectin-3 binding to Galα3Galβ4GlcNAcβ-HRP conjugate (galectin-3 coated microwells); details: for IC50: competitive inhibition of Galα3Galβ4GlcNAcβ trisaccharide:HRP conjugate binding to galectin-3 coated microwells, five-fold serial dilutions; for Krel: ratio of IC50 of reference compound 25 and IC50 of the inhibitor
T1 construct: made in house; host or cells: Escherichia coli
Protocol: NMR-spectra were recorded with a Bruker DRX-400 instrument. Chemical shifts are given in ppm, with reference to internal CHCl3 (δ 7.26 ppm) or HDO (δ 4.81 ppm). Chemical shifts and coupling constants were obtained from ^1H-NMR and proton resonances were assigned from COSY experiments. High-resolution FAB mass spectra (HRMS) were recorded with a JEOL SX-120 instrument. MALDI-TOF Spectra were recorded with a Bruker, Biflex instrument. Column chromatography was performed on SiO2 (Matrex, 60 Å, 35–70 μm, Grace Amicon) and TLC was carried out on SiO2 60 F254 (Merck) with detection under UV light and developed with aqueous sulfuric acid. Concentrations were made using rotary evaporation with bath temperature at or below 40° C. CH2Cl2 and CH3CN were dried by distillation from CaH2. Pyridine was dried over 4 Å molecular sieves. DMF was distilled and dried over 4 Å molecular sieves. MeOH and EtOH were dried over 3 Å molecular sieves. Microwell plates were from Nalge Nunc International (Nunc-immuno plate, maxisorp surface). PBS containing 0.05% Tween 20 is abbreviated PBS-T and PBS-T containing 1% BSA is abbreviated PBSA-T. Recombinant human galectin-3 was produced in Escherichia coli and purified as previously described (S. M. Massa et al, 1993). […] Microwell plates were developed with a TMB-peroxidase substrate kit (BioRad 172–1066) according to the manufacturers recommendations.
The compounds prepared above (12–24) were tested for their ability to inhibiting the binding of galectin-3 to a Galα3Galβ4GlcNAcβ trisaccharide:horseradish peroxidase conjugate.
Screening experiments. […] The wells were washed with PBS-T after 1 hour incubation at room temperature; followed by development with the TMB-peroxidase substrate kit. The reaction was stopped after 60 min by addition of 1N sulfuric acid (100 μL/well) and optical density was read at 450 nm. Each experiment was conducted twice with each sample in duplicate. […] Microtiter plate wells were coated with recombinant galectin-3 (10 μg/ml, 50 μl/well) from E. coli at 4° C. overnight, then washed three times with PBS-T. The wells were blocked with PBSA-T (100 μl/well) for 1 hour at room temperature, followed by washing with PBS-T. To the first well was added 125 μL of inhibitors 16, 18–19and 25 (0.2 mM in PBS-T). A five-fold serial dilution was performed by transfering 25 μL from the first well to a second well containing 100 μL PBS-T, mixing, then transfering 25 μL from the second well to a third well also containing 100 μL PBS-T, and so on to the eight well from which 25 μL were discarded. The dilution series was done in duplicate. […] Incubation, washing, and detection was performed as described above. The data was analyzed with non-linear regression analysis using the program Kaleidagraph™ from Synergy Software.

galectins = details: cited from earlier work

T1 sequence (P17931 whole entry): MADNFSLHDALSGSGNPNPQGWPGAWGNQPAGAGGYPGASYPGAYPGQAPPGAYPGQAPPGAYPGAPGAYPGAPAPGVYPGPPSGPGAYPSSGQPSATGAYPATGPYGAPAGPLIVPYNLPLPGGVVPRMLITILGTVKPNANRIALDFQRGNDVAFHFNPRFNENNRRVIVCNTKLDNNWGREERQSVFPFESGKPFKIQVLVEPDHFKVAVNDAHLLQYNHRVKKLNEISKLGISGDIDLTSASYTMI

Structure (SMILES) | IC50 [1] [µM] | Krel [1] | inhibition at 40 µM ([1]; 40 μM inhibitor concentration, screening experiment, read-out: Percent inhibition of Galα3Galβ4GlcNAcβ:HRP conjugate binding to galectin-3) [%] | affinity relative to lactose (times lower) (galectins; galectins, compared with lactose) | Kd (galectins; all galectins) [µM]
CO[C@@H]1O[C@H](CO)[C@@H](O[C@@H]2O[C@H](CO)[C@H](O)[C@H](NC(=O)c3ccccc3)[C@H]2O)[C@H](O)[C@H]1NC(C)=O [Compound 16, methyl 2-acetamido-2-deoxy-4-O-(3-benzamido-3-deoxy-β-D-galactopyranosyl)-β-D-glucopyranoside] | 23 | 9 | – | – | –
COc1c(F)c(F)c(C(=O)N[C@H]2[C@@H](O)[C@@H](CO)O[C@@H](O[C@H]3[C@H](O)[C@@H](NC(C)=O)[C@H](OC)O[C@@H]3CO)[C@@H]2O)c(F)c1F [Compound 18, methyl 2-acetamido-2-deoxy-4-O-(3-[4-methoxy-2,3,5,6-tetrafluorobenzamido]-3-deoxy-β-D-galactopyranosyl)-β-D-glucopyranoside] | 4.8 | 41 | – | – | –
CO[C@@H]1O[C@H](CO)[C@@H](O[C@@H]2O[C@H](CO)[C@H](O)[C@H](NC(=O)c3c(F)c(F)c(F)c(F)c3C(=O)O)[C@H]2O)[C@H](O)[C@H]1NC(C)=O [Compound 19, methyl 2-acetamido-2-deoxy-4-O-(3-[2-carboxy-3,4,5,6-tetrafluorobenzamido]-3-deoxy-β-D-galactopyranosyl)-β-D-glucopyranoside] | 11.2 | 18 | – | – | –
CO[C@@H]1O[C@H](CO)[C@@H](O[C@@H]2O[C@H](CO)[C@H](O)[C@H](O)[C@H]2O)[C@H](O)[C@H]1NC(C)=O [Compound 25, methyl 4-O-β-D-galactopyranosyl-2-acetamido-2-deoxy-β-D-glucopyranoside, reference compound] | 199 | 1 | 13 | – | –
O=C[C@H](O)[C@@H](O)[C@@H](O)[C@H](O)CO [D-galactose] | – | – | – | 50–100 times lower | –
OC[C@H]1O[C@@H](O[C@H]2[C@H](O)[C@@H](O)C(O)O[C@@H]2CO)[C@H](O)[C@@H](O)[C@H]1O (some centres unmarked) [lactose] | – | – | – | – | 500 to 1000
